The source made the active and inactive calls.
Assays:
Prothrombin = Prothrombin (Homo sapiens, UniProt P00734); assay: Thrombin 1536 HTS Dose Response Confirmation. [Related pubchem assays: 1046 (Thrombin 1536 HTS; hits were confirmed in this assay)]; type: functional
[1] = molecular target: T1, Histone-lysine N-methyltransferase NSD2 (Homo sapiens, UniProt O96028); type: biochemical
T1 sequence (O96028 whole entry): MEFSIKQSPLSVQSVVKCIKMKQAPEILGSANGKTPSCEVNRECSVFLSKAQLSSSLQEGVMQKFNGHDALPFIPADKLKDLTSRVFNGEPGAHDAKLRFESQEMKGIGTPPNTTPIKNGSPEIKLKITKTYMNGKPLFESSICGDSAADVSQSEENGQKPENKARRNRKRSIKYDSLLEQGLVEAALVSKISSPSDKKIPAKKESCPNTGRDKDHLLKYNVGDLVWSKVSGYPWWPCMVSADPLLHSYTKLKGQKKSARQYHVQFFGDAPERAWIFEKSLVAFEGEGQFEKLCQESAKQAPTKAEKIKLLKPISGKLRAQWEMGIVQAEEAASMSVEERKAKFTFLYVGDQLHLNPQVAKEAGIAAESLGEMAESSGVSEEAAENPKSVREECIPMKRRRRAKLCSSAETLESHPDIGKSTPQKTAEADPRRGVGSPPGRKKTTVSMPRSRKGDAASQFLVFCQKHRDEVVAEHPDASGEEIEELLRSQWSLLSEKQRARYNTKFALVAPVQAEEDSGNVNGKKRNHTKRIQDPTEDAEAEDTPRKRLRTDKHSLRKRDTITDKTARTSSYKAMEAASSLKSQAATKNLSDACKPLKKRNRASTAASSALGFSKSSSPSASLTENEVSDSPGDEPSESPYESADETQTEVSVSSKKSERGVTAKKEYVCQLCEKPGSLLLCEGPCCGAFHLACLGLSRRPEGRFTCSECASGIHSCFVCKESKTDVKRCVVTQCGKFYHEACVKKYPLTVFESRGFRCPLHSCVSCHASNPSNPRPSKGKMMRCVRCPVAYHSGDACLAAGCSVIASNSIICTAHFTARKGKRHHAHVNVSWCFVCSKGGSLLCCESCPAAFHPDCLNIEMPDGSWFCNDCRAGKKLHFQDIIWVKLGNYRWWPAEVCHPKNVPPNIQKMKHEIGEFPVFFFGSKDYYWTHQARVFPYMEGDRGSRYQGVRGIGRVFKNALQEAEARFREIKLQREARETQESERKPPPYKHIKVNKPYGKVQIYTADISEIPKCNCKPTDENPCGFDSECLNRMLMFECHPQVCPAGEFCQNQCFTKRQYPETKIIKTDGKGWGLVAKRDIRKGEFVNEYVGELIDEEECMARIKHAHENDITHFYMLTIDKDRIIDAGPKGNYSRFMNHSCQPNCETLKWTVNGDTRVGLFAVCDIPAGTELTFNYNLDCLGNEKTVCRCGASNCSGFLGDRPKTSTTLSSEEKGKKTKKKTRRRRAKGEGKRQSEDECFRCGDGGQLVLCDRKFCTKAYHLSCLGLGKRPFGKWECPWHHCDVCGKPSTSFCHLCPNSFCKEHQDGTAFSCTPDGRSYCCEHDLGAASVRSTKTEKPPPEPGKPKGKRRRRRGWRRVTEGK

Caspase-6 = molecular target: T2, Caspase-6 (Homo sapiens, UniProt P55212); assay: inhibition of CASP6 peptide cleavage – biochemical, VEID-R110 fluorescence, cherry-pick, dose response (AID 720632)
T2 sequence (P55212 whole entry): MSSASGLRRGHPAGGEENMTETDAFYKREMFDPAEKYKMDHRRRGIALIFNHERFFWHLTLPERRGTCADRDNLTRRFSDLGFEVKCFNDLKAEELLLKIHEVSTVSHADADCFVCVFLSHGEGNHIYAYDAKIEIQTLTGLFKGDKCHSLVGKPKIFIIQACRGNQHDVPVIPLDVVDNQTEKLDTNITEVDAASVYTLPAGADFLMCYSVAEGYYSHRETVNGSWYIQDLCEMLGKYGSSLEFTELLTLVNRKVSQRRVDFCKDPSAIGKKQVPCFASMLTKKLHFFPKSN

[2] = molecular target: FAD-linked sulfhydryl oxidase ALR (Homo sapiens, UniProt P55789); assay: ALR-catalysed DTT oxidation blockers – biochemical, H2O2 detection, luminescence, cherry-pick, dose response (AID 493248)
INS1 = assay: INS-1E survival protection against cytokine death – cell-based, luminescence, retest, dose response (AID 449756); type: functional; settings: Rattus norvegicus;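 note: cell death triggered by IL-1 beta plus TNF-alpha plus IFN-gamma mixture; protective hits raise ATP signal compared with cytokine alone wells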
[3] = viability of PTEN-deleted HCT116 cells – cell-based, HCT116 PTEN knockout, dose response (AID 1047); type: functional;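 note: HCT116 colon tumor cells with PTEN knocked out; cells exposed to compound for 60 hours before readout; potency for loss of cell viability measured by luminescence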
[4] = viability of HCT116 lacking mutant beta-catenin – cell-based, human colon tumor, dose response (AID 1045); type: functional;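 note: HCT116 colon tumor cells with beta catenin knocked out; cells exposed to compound for 60 hours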
[5] = Luminescence Cell-Based Dose Retest to Confirm Inhibitors of Cancer Stem Cells. [Related pubchem assays (depositor defined):AID2717, AID2721]; type: functional; settings: Homo sapiens
[6] = viability of uninfected HEp-2 cells – cell-based, HTS, cytotoxicity control for RSV inhibitor project, dose response (AID 2410); type: functional; settings: human respiratory syncytial virus
Vero [7] = assay: cells; type: functional, cell-based; settings: Chlorocebus sabaeus
cells [8] = assay: cells
Vero [9] = assay: cells; type: functional; settings: Chlorocebus sabaeus
[10] = molecular target: T3, Heat shock factor protein 1 (Mus musculus, UniProt P38532); assay: enhancement of HSF1-driven luciferase signal – cell-based, NIH3T3, luminescence, dose retest, confirmation (AID 435004); type: functional;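 note: stress induced by proteasome inhibitor MG132 added 30 min after compound; luciferase reporter driven by HSF1 response element in NIH3T3 cells; actives raise luminescence as potentiators of the MG132 stress response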
T3 sequence (P38532 whole entry): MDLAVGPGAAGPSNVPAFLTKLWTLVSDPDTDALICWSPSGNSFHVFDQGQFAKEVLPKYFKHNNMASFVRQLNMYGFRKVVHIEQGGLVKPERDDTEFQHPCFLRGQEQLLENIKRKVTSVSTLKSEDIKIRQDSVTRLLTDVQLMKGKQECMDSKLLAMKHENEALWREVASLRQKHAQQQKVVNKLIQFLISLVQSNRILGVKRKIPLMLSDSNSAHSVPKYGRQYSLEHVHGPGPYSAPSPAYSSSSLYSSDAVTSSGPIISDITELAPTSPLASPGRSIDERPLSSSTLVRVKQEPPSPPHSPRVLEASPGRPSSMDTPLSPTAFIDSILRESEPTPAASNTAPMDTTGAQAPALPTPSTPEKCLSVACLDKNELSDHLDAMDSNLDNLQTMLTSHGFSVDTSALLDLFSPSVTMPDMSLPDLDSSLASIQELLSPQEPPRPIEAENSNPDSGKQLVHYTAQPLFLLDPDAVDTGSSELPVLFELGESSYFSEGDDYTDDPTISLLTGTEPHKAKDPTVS

Paired box protein Pax-8 = Paired box protein Pax-8 (Homo sapiens, UniProt Q06710); assay: PAX8 transcriptional activity inhibition in RMG-I – RMG-I cells, luciferase, cherry-pick, dose response (AID 687027); type: functional, cell-based;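 note: luciferase reporter driven by Pax8 target thyroperoxidase promoter measured by SteadyGlo luminescence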
[11] = OVCAR-3 cell viability loss – plate reader, dry powder samples, PAX8 inhibitor project, dose response (AID 743044); type: functional, cell-based
Protein RecA = molecular target: T4, Protein RecA (Mycobacterium tuberculosis, UniProt P9WHJ3); assay: Fluorescence Cell-Free Homogeneous Dose Retest to Identify Inhibitors of RecA-Intein Splicing Activity. [Related pubchem assays (depositor defined):AID2097, AID2223, AID489010, AID492950]; type: functional
T4 sequence (P9WHJ3 whole entry): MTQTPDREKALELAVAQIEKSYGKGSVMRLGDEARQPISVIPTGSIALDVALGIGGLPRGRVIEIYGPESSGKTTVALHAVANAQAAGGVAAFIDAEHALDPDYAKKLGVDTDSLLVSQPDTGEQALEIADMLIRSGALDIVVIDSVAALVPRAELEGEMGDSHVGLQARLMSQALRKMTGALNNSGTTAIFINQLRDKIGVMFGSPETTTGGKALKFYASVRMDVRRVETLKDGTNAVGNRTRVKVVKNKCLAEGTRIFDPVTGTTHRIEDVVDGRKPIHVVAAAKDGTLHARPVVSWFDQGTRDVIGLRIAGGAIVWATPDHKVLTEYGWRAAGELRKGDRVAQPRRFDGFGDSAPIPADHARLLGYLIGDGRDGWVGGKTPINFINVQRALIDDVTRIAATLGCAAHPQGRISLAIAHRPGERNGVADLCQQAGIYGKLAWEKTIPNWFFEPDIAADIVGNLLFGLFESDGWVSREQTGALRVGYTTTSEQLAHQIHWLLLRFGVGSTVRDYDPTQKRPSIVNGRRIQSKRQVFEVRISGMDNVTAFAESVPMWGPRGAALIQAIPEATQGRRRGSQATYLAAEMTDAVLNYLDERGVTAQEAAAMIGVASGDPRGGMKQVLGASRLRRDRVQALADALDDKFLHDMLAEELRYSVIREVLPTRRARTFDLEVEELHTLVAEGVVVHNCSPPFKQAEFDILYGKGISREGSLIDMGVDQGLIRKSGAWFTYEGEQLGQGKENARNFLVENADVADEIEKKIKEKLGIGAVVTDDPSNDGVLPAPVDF

[12] = molecular target: T5, Replicative DNA helicase DnaB (Mycobacterium tuberculosis, UniProt P9WMR3); assay: DnaB intein splicing inhibitors, dose response, biochemical, cell-free fluorescence (AID 449749); type: functional
T5 sequence (P9WMR3 whole entry): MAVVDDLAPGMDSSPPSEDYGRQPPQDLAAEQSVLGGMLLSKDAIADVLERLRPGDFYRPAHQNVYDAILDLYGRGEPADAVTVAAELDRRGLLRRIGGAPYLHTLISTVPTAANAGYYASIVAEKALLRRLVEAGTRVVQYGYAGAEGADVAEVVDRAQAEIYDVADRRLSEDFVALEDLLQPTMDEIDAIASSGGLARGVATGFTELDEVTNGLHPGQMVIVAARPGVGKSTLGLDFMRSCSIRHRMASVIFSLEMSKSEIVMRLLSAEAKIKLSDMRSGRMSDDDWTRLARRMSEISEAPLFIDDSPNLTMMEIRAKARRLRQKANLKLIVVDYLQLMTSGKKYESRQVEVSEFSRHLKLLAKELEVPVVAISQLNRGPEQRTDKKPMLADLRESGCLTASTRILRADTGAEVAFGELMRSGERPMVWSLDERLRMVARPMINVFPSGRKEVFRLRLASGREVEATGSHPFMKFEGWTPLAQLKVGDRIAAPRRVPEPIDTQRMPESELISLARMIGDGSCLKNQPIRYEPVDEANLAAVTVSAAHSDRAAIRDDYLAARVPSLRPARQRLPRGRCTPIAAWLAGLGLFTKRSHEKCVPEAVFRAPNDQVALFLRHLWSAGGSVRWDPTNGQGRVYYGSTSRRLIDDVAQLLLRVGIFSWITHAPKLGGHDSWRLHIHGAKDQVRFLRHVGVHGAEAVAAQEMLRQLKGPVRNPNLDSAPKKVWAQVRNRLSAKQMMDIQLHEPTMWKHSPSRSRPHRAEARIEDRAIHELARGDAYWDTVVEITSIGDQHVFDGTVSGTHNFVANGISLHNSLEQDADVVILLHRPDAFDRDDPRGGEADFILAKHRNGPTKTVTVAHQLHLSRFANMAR

[13] = NIH3T3 cell viability loss – ATP luminescence, mouse fibroblasts, counter-screen, dose response (AID 2010); type: functional, cell-based;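 note: cells exposed to compound for about 90 hours before reading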
[14] = Trypanosoma cruzi growth suppression in host cells – NIH3T3 host cells, beta-gal luminescence, confirmation (AID 2044); type: functional, cell-based;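 note: intracellular parasites grown in NIH/3T3 mouse fibroblasts as host cells; luminescent beta-galactosidase reporter signal from transgenic T. cruzi replicating inside host cells; inhibitors lower the luminescence signal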
cells [15] = assay: cells; remark: listed apart in the source
[16] = molecular target: T3, Heat shock factor protein 1; assay: decrease of HSF1-responsive luciferase luminescence – cell-based, NIH3T3, dose retest, confirmation (AID 2382); type: functional;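 note: NIH3T3 fibroblasts with HSF1-driven luciferase reporter stressed by proteasome inhibitor MG132; luminescence from HSF1-driven luciferase expression after 8 hours of MG132 stress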
[17] = viability loss in THP-1 monocytes – THP-1 cells, cytotoxicity control for Vif-APOBEC3G degradation inhibitor project, dose response (AID 1117359); type: functional; settings: THP-1
Estrogen receptor beta = Estrogen receptor beta (Homo sapiens, UniProt Q92731);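 note: recombinant ER-beta bound to coactivator SRC1 peptide in presence of estradiol agonist; inhibitors block coactivator peptide binding and lower the FRET signal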
Sequence of Estrogen receptor beta (Q92731 whole entry): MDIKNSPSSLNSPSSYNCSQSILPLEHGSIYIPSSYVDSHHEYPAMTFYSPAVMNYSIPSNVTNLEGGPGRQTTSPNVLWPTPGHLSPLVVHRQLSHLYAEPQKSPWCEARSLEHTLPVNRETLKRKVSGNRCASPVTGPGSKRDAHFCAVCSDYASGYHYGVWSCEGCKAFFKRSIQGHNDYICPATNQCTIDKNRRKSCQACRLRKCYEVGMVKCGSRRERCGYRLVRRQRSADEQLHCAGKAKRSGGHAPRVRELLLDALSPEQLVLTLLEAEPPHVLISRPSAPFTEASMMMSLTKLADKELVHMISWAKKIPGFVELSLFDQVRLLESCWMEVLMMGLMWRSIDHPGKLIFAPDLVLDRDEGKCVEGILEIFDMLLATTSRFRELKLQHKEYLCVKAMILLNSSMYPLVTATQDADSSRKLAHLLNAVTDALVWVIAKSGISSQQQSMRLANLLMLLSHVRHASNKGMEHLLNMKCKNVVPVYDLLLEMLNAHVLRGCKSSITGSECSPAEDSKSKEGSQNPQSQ

Sequence of Paired box protein Pax-8 (Q06710 whole entry): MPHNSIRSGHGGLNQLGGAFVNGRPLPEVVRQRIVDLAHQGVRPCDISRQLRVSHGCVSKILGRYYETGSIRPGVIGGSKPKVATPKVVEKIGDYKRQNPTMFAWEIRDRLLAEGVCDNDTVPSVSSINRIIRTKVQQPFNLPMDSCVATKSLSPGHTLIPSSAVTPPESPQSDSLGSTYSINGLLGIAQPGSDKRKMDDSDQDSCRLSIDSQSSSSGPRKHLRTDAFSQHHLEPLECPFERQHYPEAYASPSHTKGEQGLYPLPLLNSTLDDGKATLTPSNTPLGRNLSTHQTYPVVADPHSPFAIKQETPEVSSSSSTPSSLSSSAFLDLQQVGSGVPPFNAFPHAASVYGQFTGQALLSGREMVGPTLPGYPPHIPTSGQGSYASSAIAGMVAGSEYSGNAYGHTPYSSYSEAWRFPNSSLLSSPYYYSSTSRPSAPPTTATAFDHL
Sequence of FAD-linked sulfhydryl oxidase ALR (P55789 whole entry): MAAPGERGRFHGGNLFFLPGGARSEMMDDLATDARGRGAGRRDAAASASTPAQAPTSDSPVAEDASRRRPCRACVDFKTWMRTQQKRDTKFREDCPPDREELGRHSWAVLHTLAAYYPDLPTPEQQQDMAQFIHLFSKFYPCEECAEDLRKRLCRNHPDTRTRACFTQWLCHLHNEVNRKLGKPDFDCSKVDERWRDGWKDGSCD

CCc1ccc(NC2CC(=O)N(c3ccc(OC)cc3OC)C2=O)cc1 (stereo not drawn)
IC50 (Prothrombin): > 50 µM (not active)

CCc1ccc2cccc3c2c1N=CN3C
AC50 [1]: 7.21 µM (active) | AC50 (Caspase-6): 6.79 µM (active) | AC50 [2]: 0.24 µM (active)

CC(C)NC(=O)CSc1nc(-c2ccccc2)cs1
IC50 (Prothrombin): > 50 µM (not active)

O=C(NCc1cccnc1)/C(=C/c1ccc(-c2cccc(Cl)c2)o1)S(=O)(=O)c1ccccc1
AC50 (INS1): 6.06 µM (active) | EC50 [3]: 2.02 µM (active) | EC50 [4]: 2.02 µM (active) | AC50 [5]: 1.73 µM (active)

O=C(/C=C/c1ccc(Cl)cc1)c1cccnc1
EC50 [3]: 1.75 µM (active) | EC50 [4]: 0.793 µM (active)

CCCc1c(NC(=O)Nc2ccc(F)cc2)cnn1-c1ccccc1
CC50 [6]: 21.3 µM (active) | IC50 (Vero [7]): 2.12 µM (active) | IC50 (cells [8]): 4.51 µM (active) | CC50 (Vero [9]): > 25 µM (active)

Cc1ccc(N(CCCCN2C(=O)c3ccccc3C2=O)C(=O)c2cccc([N+](=O)[O-])c2)cc1
CC50 [6]: > 50 µM (active) | EC50 [10]: 33.2 µM (active) | IC50 (cells [8]): 15.8 µM (active)

C[C@@H]1CN([C@H](C)CO)C(=O)c2cc(NS(=O)(=O)c3cccs3)ccc2O[C@@H](C)CCCCO[C@H]1CN(C)Cc1ccc(Cl)c(Cl)c1
AC50 (Paired box protein Pax-8): 9.2 µM (active) | AC50 [11]: 46.5 µM (active)

CNC(=O)/C(C#N)=C/c1c(N(Cc2ccccc2)Cc2ccccc2)nc2c(C)cccn2c1=O
EC50 (Protein RecA): 104 µM (active) | AC50 [12]: > 120 µM (inactive) | CC50 [6]: 10.1 µM (active) | IC50 (cells [8]): 11.3 µM (active)

COc1ccccc1N=C(S)N(Cc1ccco1)Cc1cc2cc(C)ccc2nc1O
IC50 (Prothrombin): > 50 µM (not active)

C=C(C)C1CC=C(CN2CCN(Cc3ccccc3)CC2)CC1 (stereo not drawn)
EC50 [13]: > 60 µM (not active) | EC50 [14]: < 0.1 µM (active) | EC50 (cells [15]): 0.189 µM (active)

CCOc1ccccc1NC(=O)Cn1c(-c2ccc(Cl)cc2)noc1=O
EC50 [16]: > 195 µM (not active) | CC50 [17]: > 40 µM (active)

Cn1nc(CC(=O)Nc2ncc(Br)s2)c2ccccc2c1=O
IC50 (Estrogen receptor beta): > 50 µM (not active)

Cc1nc2c(=O)[nH]c(=S)[nH]c2nc1O
AC50 [1]: 16.2 µM (active) | AC50 (Caspase-6): 6.58 µM (active)
